Experimental data as given in patent publication US11771673B2, “On site generated performic acid compositions for teat treatment” (ECOLAB USA INC., priority 2018, dated 2023).

Assay: Accelerated stability of hydrogen peroxide premixes with different self-indicators under 40° C.
Type: physicochemical
Conditions: approximately 13 weeks
Protocol: The hydrogen peroxide premixes were prepared according to Table 10 with differing types of FD&C dyes. The compositions were stored in a 40° C. oven for approximately 13 weeks. Their stability, as evaluated by the presence of hydrogen peroxide, was compared and is depicted in Table 11.

## O=S(=O)([O-])c1ccc(N=Nc2c(O)ccc3cc(S(=O)(=O)[O-])ccc23)cc1.[Na+].[Na+] [FD&C yellow 6]
  stability of dye in hydrogen peroxide premix: significantly more stable than FD&C yellow 5
